Laboratory results published in ChEMBL document CHEMBL4304757, “Synthetic heterocyclic candidates as promising α-glucosidase inhibitors: An overview” (Eur J Med Chem, 2019).
pIC50: −log10 of the molar value.

Target: Alpha glucosidase (Homo sapiens, UniProt O43451+P10253+P14410+Q2M2H8)
Test: Inhibition of alpha-glucosidase (unknown origin)
Assay type: protein assay

Structure (SMILES)	pIC50
O=C(C[C@@H](c1cccs1)c1c[nH]c2ccccc12)c1ccc2ccccc2c1	4.37 to 5.37

Target: not listed separately
Test: Inhibition of yeast alpha-glucosidase using p-nitrophenyl-alpha-d-glucopyranoside as substrate preincubated for 10 mins followed by substrate addition measured after 30 mins
Design: species or system Saccharomyces cerevisiae

Structure (SMILES)	pIC50
Cc1cc2nc(-c3ccc(C(=O)N/N=C/c4ccc([N+](=O)[O-])cc4)cc3)[nH]c2cc1C	3.75 to 5.08
COc1ccc(-n2c(-c3cn(-c4ccccc4)nc3-c3cc4ccccc4oc3=O)nc(-c3ccccc3)c2-c2ccccc2)cc1	4.34 to 5.60
CCCn1c(-c2cn(-c3ccccc3)nc2-c2cc3ccccc3oc2=O)nc(-c2ccccc2)c1-c1ccccc1	4.34 to 5.60
O=c1oc2ccc(Br)cc2cc1-c1nn(-c2ccccc2)cc1-c1nc(-c2ccccc2)c(-c2ccccc2)n1-c1ccc(Cl)cc1	5.60
O=c1oc2ccccc2cc1-c1nn(-c2ccccc2)cc1-c1nc(-c2ccccc2)c(-c2ccccc2)n1-c1ccc(Cl)cc1	4.34 to 5.60
Cc1cc2nc(-c3ccc(C(=O)N/N=C/c4cccnc4)cc3)[nH]c2cc1C	3.75 to 5.08
O=c1oc2ccccc2cc1-c1nn(-c2ccccc2)cc1-c1nc(-c2ccccc2)c(-c2ccccc2)[nH]1	5.57
COc1cccc(/C=N/NC(=O)c2ccc(-c3nc4cc(C)c(C)cc4[nH]3)cc2)c1	3.75 to 5.08
Cc1cc2nc(-c3ccc(C(=O)NNC(=S)Nc4ccc(Cl)c(Cl)c4)cc3)[nH]c2cc1C	3.53 to 4.46
Cc1cc2nc(-c3ccc(C(=O)N/N=C/c4cccc(O)c4O)cc3)[nH]c2cc1C	5.00 to 5.08
Cc1nn(-c2ccc(Nc3cccc(Cl)c3)nn2)c(C)c1[N+](=O)[O-]	4.72
Cc1cc2nc(-c3ccc(C(=O)NNC(=S)Nc4cccc(F)c4)cc3)[nH]c2cc1C	3.53 to 4.46
Cc1cc2nc(-c3ccc(C(=O)N/N=C/c4cc(O)c(O)c(O)c4)cc3)[nH]c2cc1C	5.08
COc1ccc(/C=N/NC(=O)c2ccc(-c3nc4cc(C)c(C)cc4[nH]3)cc2)cc1	3.75 to 5.08
Cc1cccc(/C=N/NC(=O)c2ccc(-c3nc4cc(C)c(C)cc4[nH]3)cc2)c1	3.75 to 5.08
Cc1cc2nc(-c3ccc(C(=O)N/N=C/c4cccc(Cl)c4)cc3)[nH]c2cc1C	3.75 to 5.08
Cc1cc2nc(-c3ccc(C(=O)N/N=C/c4ccc(Cl)cc4)cc3)[nH]c2cc1C	3.75 to 5.08

Structure (SMILES)	pIC50
Cc1cc2nc(-c3ccc(C(=O)NNC(=S)Nc4ccccc4F)cc3)[nH]c2cc1C	3.53 to 4.46
Cc1ccc(NC(=S)NNC(=O)c2ccc(-c3nc4cc(C)c(C)cc4[nH]3)cc2)cc1	3.53 to 4.46
Cc1cc2nc(-c3ccc(C(=O)N/N=C/c4ccccc4C)cc3)[nH]c2cc1C	3.75 to 5.08
Cc1cc2nc(-c3ccc(C(=O)N/N=C/c4cc(O)ccc4O)cc3)[nH]c2cc1C	5.00 to 5.08
Cc1cc2nc(-c3ccc(C(=O)N/N=C/c4cccc(F)c4)cc3)[nH]c2cc1C	3.75 to 5.08
Cc1cc2nc(-c3ccc(C(=O)N/N=C/c4ccc(O)cc4)cc3)[nH]c2cc1C	3.75 to 5.08
COc1cccc(NC(=S)NNC(=O)c2ccc(-c3nc4cc(C)c(C)cc4[nH]3)cc2)c1	3.53 to 4.46
c1ccc(-c2ccc(-c3nn(-c4ccccc4)cc3-c3nc(-c4ccccc4)c(-c4ccccc4)[nH]3)cc2)cc1	4.64 to 5.57
Cc1cc2nc(-c3ccc(C(=O)N/N=C/c4ccncc4)cc3)[nH]c2cc1C	3.75 to 5.08
O=[N+]([O-])c1ccc(-n2cc(-c3nc(-c4ccccc4)c(-c4ccccc4)[nH]3)c(-c3ccccc3)n2)cc1	4.64 to 5.57
Cc1cc2nc(-c3ccc(C(=O)NNC(=S)Nc4ccccc4Cl)cc3)[nH]c2cc1C	3.53 to 4.46
Cc1cc2nc(-c3ccc(C(=O)NNC(=S)Nc4ccccc4Br)cc3)[nH]c2cc1C	3.53 to 4.46
Cc1ccc(/C=N/NC(=O)c2ccc(-c3nc4cc(C)c(C)cc4[nH]3)cc2)cc1	3.75 to 5.08
O=[N+]([O-])c1cccc(-c2nn(-c3ccccc3)cc2-c2nc(-c3ccccc3)c(-c3ccccc3)[nH]2)c1	4.64 to 5.57
Cc1cc2nc(-c3ccc(C(=O)N/N=C/c4ccco4)cc3)[nH]c2cc1C	3.75 to 5.08
Cc1ccc(-n2c(-c3cn(-c4ccccc4)nc3-c3cc4cc(Br)ccc4oc3=O)nc(-c3ccccc3)c2-c2ccccc2)cc1	4.34 to 5.60
Cc1cc2nc(-c3ccc(C(=O)NNC(=S)Nc4cccc([N+](=O)[O-])c4)cc3)[nH]c2cc1C	3.53 to 4.46
